assay: Dynamic light scattering: hydrodynamic size and polydispersity index (PDI) of nanoparticles; type: physicochemical; details: GSCG1,2-RHL N:P 0.6:1, DOTMA/DOPE nanoparticles coated at 2.06:1 (dendrimer to mRNA)
Method: (§1) The hydrodynamic size was measured using the dynamic light scattering (DLS) technique. DLS is a very sensitive, non-invasive method to measure size and size distribution of nanoparticles in a liquid. […] Analysing these intensity fluctuations allows us to calculate the velocity of the Brownian motion. The size of the nanoparticles can be determined by using the Stokes-Einstein relationship. With the latest technology, it can measure nanoparticles smaller than 1 nm.
PDI is used to estimate the average uniformity of a particle solution, The method of cumulants is a standard technique for analysing DLS data on sample polydispersity. PDI is a number calculated from a 2 parameter fit to the correlation data (the cumulants analysis). The cumulants analysis is used to evaluate the autocorrelation function generated by a DLS experiment. The calculation is defined in ISO 13321 and ISO 22412. PDI values greater than 0.7 indicate that the sample has a very broad size distribution and is not suitable for the DLS technique. The calculations for these parameters are defined in the ISO standard document 13321:1996 E and ISO 22412:2008.
as §1, with “Size, zeta potential and polydispersity index (PDI) measurement: The hydrodynamic” for “The hydrodynamic”, “scattering (DLS) technique using the Zetasizer Advance Series—Pro (Malvern Panalytical Ltd, Malvern, UK) according to the manufacturer's instructions. DLS is” for “scattering (DLS) technique. DLS is”
The data obtained with DLS measurements can also be used to calculate the PDI of particle in solution. PDI is used to estimate the average uniformity of a particle solution. The method of cumulants is a standard technique for analysing DLS data on sample polydispersity. PDI is a number calculated from a 2 parameter fit to the correlation data (the cumulants analysis). The cumulants analysis is used to evaluate the autocorrelation function generated by a DLS experiment. The calculation is defined in ISO 13321 and ISO 22412. PDI values greater than 0.7 indicate that the sample has a very broad size distribution and is not suitable for the DLS technique. The calculations for these parameters are defined in the ISO standard document 13321:1996 E and ISO 22412:2008.
To measure the size and PDI, the samples were diluted 16× in 25 mM HEPES buffer (5 μl sample+75 μl buffer). Parameters: reference material: polystyrene latex, dispersant: water, 25° C. The PDI measurements were measured in nanoparticles comprising a dendrimer:nucleic acid NP ratio of 8:1.

| PDI | size [nm] | Substance |
| --- | --- | --- |
| 0.12 | 166 | (Ac-EEEE)2KGSGGSGGSC-NH2 |

same assay, conditions: GSCG1,2-RHL N:P 0.6:1, DOTMA/DOPE nanoparticles coated at 2.72:1 (dendrimer to mRNA)

| PDI | size [nm] | Substance |
| --- | --- | --- |
| 0.13 | 169 | (Ac-EEEE)2KGSGGSGGSC-NH2 |

same assay, conditions: GSCG1,2-RHL N:P 0.6:1, DOTMA:DOPE nanoparticles; coating mol ratio 2.06 to mRNA P where coated

| Substance | Pdl | Z-average diameter [nm] |
| --- | --- | --- |
| (Ac-EEEE)2KGSGGSGGSACDCRGDCFCG-NH2 (Disulfide bridges: C1-C4, C2-C3) | 0.20 | 191 |
| (Ac-EEEE)2KGSGGSGGSC-NH2 | 0.16 | 165 |

same assay, conditions: Table 7, first generation dendrimers for mixed dendrimer nanoparticles

| PDI | Substance |
| --- | --- |
| 0.766 | (RLR)2KRHC-NH2 [RHCG1-RLR] |

same assay, conditions: peptide dendrimer, lipid and mRNA complexes; N:P 8:1, DOTMA/DOPE w/w 10:1 to mRNA

| Polydispersity Index (PDI) | Substance |
| --- | --- |
| 0.252 | (R)4(KR)2KRHC-NH2 [RHCG1,2-R] |
| 0.287 | (LRLR)8(KLRLR)4(KLRLR)2KGSC-NH2 [GSCG1,2,3-LRLR] |
| 0.213 | (LR)8(KRL)4(KRL)2KYM-NH2 [YMG1,2-RL, 3-LR] |
| 0.189 | (LRLR)4(KLRLR)2KGSC-NH2 [GSCG1,2-LRLR] |
| 0.272 | (LR)8(KLR)4(KLR)2KGSC-NH2 [GSCG1,2,3-LR] |
| 0.299 | (RLR)8(KRLR)4(KRLR)2KRHC-NH2 [RHCG1,2,3-RLR] |
| 0.401 | (LR)8(KRL)4(KRL)2KRFW-NH2 [RFWG1,2-RL, 3-LR] |
| 0.363 | (LR)8(KRL)4(KRL)2KRHC-NH2 [RHCG1,2-RL, 3-LR] |
| 0.242 | (RL)8(KLR)4(KLR)2KGSC-NH2 [GSCG1,2-LR, 3-RL] |
| 0.257 | (LR)8(KRL)4(KRL)2KRYM-NH2 [RYMG1,2-RL, 3-LR] |
| 0.396 | (R)8(KR)4(KR)2KRHC-NH2 [RHCG1,2,3-R] |
| 0.214 | (RLR)4(KRLR)2KRHC-NH2 [RHCG1,2-RLR] |

The remaining lines, values behind:

| Substance | Polydispersity Index (PDI) |
| --- | --- |
| (LR)8(KRL)4(KRL)2KA-NH2 [AG1,2-RL, 3-LR] | 0.184 |
| (QR)8(KRT)4(KRY)2KGSC-NH2 [GSCG1-RY, 2-RT, 3-QR] | 0.178 |
| (LR)8(KRL)4(KRE)2KGSC-NH2 [GSCG1-RE, 2-RL, 3-LR] | 0.158 |
| (lR)8(KrL)4(KRL)2KGSC-NH2 [GSCG1-Rl, 2-rL, 3-lR] | 0.241 |
| (R)8(KRL)4(KRLR)2KRHC-NH2 [RHCG1-RLR, 2-RL, 3-R] | 0.429 |
| (RR)4(KLL)2KGSC-NH2 [GSCG1-LL, 2-RR] | 0.087 |
| (LR)8(DabRL)4(DabRL)2DabGSC-NH2 | 0.286 |
| (HK)8(KKH)4(KKL)2KGSC-NH2 [GSCG1-KL, 2-KH, 3-HK] | 0.126 |
| (LR)8(KR)4(KRLR)2KRHC-NH2 [RHCG1-RLR, 2-R, 3-LR] | 0.439 |
| (LR)8(KRL)4(KRL)2KGSCRHCRFWRYM-NH2 [LinearG1,2-RL, 3-LR] | 0.289 |
| (lr)8(krl)4(krl)2kgsc-NH2 | 0.246 |
| (RL)8(KRL)4(KLR)2KGSC-NH2 [GSCG1-LR, 2,3-RL] | 0.417 |
| (LR)8(KR)4(KRLRL)2KRHC-NH2 [RHCG1-RLRL, 2-R, 3-LR] | 0.37 |
| (WR)8(KRM)4(KRF)2KGSC-NH2 [GSCG1-RF, 2-RM, 3-WR] | 0.277 |
| (YR)8(KRT)4(KRQ)2KGSC-NH2 [GSCG1-RQ, 2-RT, 3-YR] | 0.409 |
| (BR)8(KRB)4(KRX)2KGSC-NH2 [GSCG1-RX, 2-RB, 3-BR] | 0.403 |
| (LR)2KRHC-NH2 [RHCG1-LR] | 0.577 |
| (FR)8(KRQ)4(KRW)2KGSC-NH2 [GSCG1-RW, 2-RQ, 3-FR] | 0.452 |
| (MR)8(KRC)4(KRC)2KGSC-NH2 [GSCG1-RC, 2-RC, 3-MR] | 0.19 |

assay: Zeta potential of nanoparticles (electrophoretic light scattering); type: physicochemical; details: GSCG1,2-RHL N:P 0.6:1, DOTMA/DOPE nanoparticles coated at 2.06:1 (dendrimer to mRNA)
Description: Zeta potential is a measurement of the magnitude of the electrostatic or charge repulsion/attraction between particles. This can be determined by analysing particle mobility and charge (Zeta potential) using the Electrophoretic Light Scattering (ELS) technique.
Zeta potential is a measurement of the magnitude of the electrostatic or charge repulsion/attraction between particles. This can be determined by analysing particle mobility and charge (Zeta potential) using the Electrophoretic Light Scattering (ELS) technique. […] Parameters: reference material: polystyrene latex, dispersant: water, 25° C. The measurements of the zeta potential were carried out using the Zetasizer Advance Series—Pro (Malvern Panalytical Ltd, Malvern, UK) according to the manufacturer's instructions.

| zeta potential [mV] | Substance |
| --- | --- |
| ~33.2 | (Ac-EEEE)2KGSGGSGGSC-NH2 |

same assay, conditions: GSCG1,2-RHL N:P 0.6:1, DOTMA/DOPE nanoparticles coated at 2.72:1 (dendrimer to mRNA)

| zeta potential [mV] | Substance |
| --- | --- |
| ~35.4 | (Ac-EEEE)2KGSGGSGGSC-NH2 |

same assay, conditions: GSCG1,2-RHL N:P 0.6:1, DOTMA:DOPE nanoparticles; coating mol ratio 2.06 to mRNA P where coated

| Substance | zeta potential [mV] |
| --- | --- |
| (Ac-EEEE)2KGSGGSGGSACDCRGDCFCG-NH2 (Disulfide bridges: C1-C4, C2-C3) | −31.9 |
| (Ac-EEEE)2KGSGGSGGSC-NH2 | −29.3 |
